Values quoted from earlier work in patent publication US11459445B2, “Composition and molded body” (SUMITOMO CHEMICAL COMPANY, LIMITED, priority 2018, dated 2022).

Tested on: C. violaceum CV026
Settings: N-hexanoyl homoserine lactone added; compared with no caffeine; Sensors 2013, 13, 5117-5129

SMILES: Cn1c(=O)c2c(ncn2C)n(C)c1=O [caffeine]
- amount of violet pigment (violacein) produced: smaller
